The values below come from US12193465B2, “Materials and methods for extending shelf-life of foods” (JP Laboratories, Inc., priority 2021, dated 2025).

Counter-ions that a name gives are not always drawn. Like-named read-outs stand apart in the source and are kept apart here.

One series has as its system fungus. Nature of the series: Fungus growth on treated foods stored in closed containers at room temperature.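 As to Effectiveness on ginger: compared with untreated control ginger in closed containers.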 The text has this:
(§1) Most of the foods changed color or texture.
Glass jars and bottles were also used. The containers were snap-closed or with a lid.
(§2) These bags were sealed with a heat sealer.
(§3) The assembly was shaken periodically.

Series [1] can be described thus: General shelf-life extension of foods (spoilage criteria of Example 9). The note with it: for Effectiveness for controlling one or more spoilage criteria: variety of foods. The protocol: (§4) All studies were conducted at a room temperature of about 25° C. To determine the effectiveness of a shelf-life extender, a control sample which was untreated with any shelf-life extenders, was tested identical to the test samples. […] All studies in those Examples of Tables 1-6 were conducted in closed plastic or glass containers. Containers, such as plastic containers, without or with lids having holes can be used if it is advantageous to let excess moisture escape or to prevent condensation of moisture released by some produce.
(§5) Food exposed to preservatives or by a sachet was placed in typically polystyrene or acrylic containers depending upon the size and number of food items. Glass jars and bottles were also used. The containers were snap-closed or with a lid. The containers were purchased mainly from Amazon or Webstaurant.com store. When needed, plastic containers with holes or without lids were used.
(§6) For controlled exposure and a constant supply of a preservative to foods, sachets containing one or more drops of preservatives were used. Sachets were made by placing an appropriate amount of a preservative in a plastic bag containing a piece of paper and heat sealing the bag. The sachet bag materials used were Tyvek® for solid preservative, polyethylene, polyester and high barrier multilayer films were used for liquid preservatives. These bags were sealed with a heat sealer. The sachet was typically applied on one side of the container containing food.
(§7) A piece of paper napkin was taped inside a 100 microns thick polyethylene or polyester Ziploc bag. The size of the bag varied from ˜20 cm×30 cm to ˜60 cm×90 cm depended on the sample with sandwich bags up to gallon bags being exemplary. The paper napkin was wetted with 0.1-0.5 ml of a preservative or a mixture of preservatives. A tray of aluminum, stainless steel or glass containing the foods was placed inside the plastic (polyethylene, polyester and multilayer-laminated) bag and almost closed by locking the Ziploc. Air was blown with an air blower from the unclosed end until the bag was fully blown and then quickly closed tightly by locking the remaining Ziploc. If a preservative was a sublimable solid, it was placed in a petri dish and then placed inside the bag in the tray before blowing air. The exposure time was varied from five minutes to a day depending upon the food. […] The assembly was shaken periodically. After the predetermined time, the tray containing produce was removed from the bag, allowed to de-gas for 10-30 minutes in air and the produce was then placed in an appropriately sized container. Glass and stainless steel containers with lids were also often used.
(§8) A solution of one or more preservatives was prepared in a large (e.g., 2-10 liter) glass beaker or a jar. A sack containing the food was prepared by placing the food in a plastic mesh bag. The sack was placed in the solution of the preservative. A smaller glass beaker containing proper amount of water was place over the package to keep the sack soaked in the solution of the preservative during the treatment. The solution was stirred either with a plastic spatula or with a magnet over a magnetic stirrer. After treatment, the mesh sack was removed, the produce was washed in a tray with running water, strained and air dried at 30° C. in an air blowing oven for about 5-10 minutes, while shaking the tray or turning the food periodically followed by placing the sample in an appropriate container.
(§9) The food was placed in mesh trays and sprayed with an aqueous solution (1-10%) of a preservative while shaking the tray or turning the food. The solution was allowed to drain from the tray and the food was air dried in an air blowing oven at 30° C. for about 5-10 minutes, while shaking the tray or turning food periodically followed by placing the sample in an appropriate container.

Series [2] relates to green tomato, papaya, banana, mango, peppers, tindora. Nature of the series: Ripening of fruits and vegetables (delayed or expedited). The note with it: for Spoilage Time - Sample (Expedited ripening): control 14+ days; for Ripening, green-to-yellow (or red) color-change: pre-dipping into 10% solution. The protocol: as §4, §6, §7, §8
The untreated (control sample) and treated food were placed in proper sized plastic containers and the containers were tightly closed.
The following major criteria were used for determining spoilage of foods: growth of fungus, color change, unpleasant odor, wilting, firmness or shriveling, change of state (liquid to solid or vice versa), and sprouting or germination Example 10: Sources of food.

Series [3] in a line: Color change / browning / yellowing of foods (keeping produce green longer). The note with it: for Spoilage Time - Sample (Color change): 2% in water sprayed. The procedure:
as §4, §5, §6, §7, §8, §9

Series [4] concerns grains, legumes, potatoes, garlic. The series is described as follows: Germination / sprouting of grains, legumes and tubers. The note with it: for Spoilage Time - Sample: Example 111, Germination, Mixed Legumes, 64 hrs P-E, control 3 days.
Source text: as §2, §3

A further series deals with avocado. Nature of the series: Softening / rotten inside (spoiled flesh) of avocado.
Source text: as §1, §3

Series [5] is described as follows: Color loss of meat and fish. The note with it: for Spoilage Time - Sample (Color loss): Sachet, control 2 days.
Source text: as §1, §2

For series [6], the system named is parval, methi, coriander, radish, guar. Nature of the series: Shriveling / wilting / dehydration / becoming wet of produce. The note with it: for Spoilage Time - Sample (Dehydration): 0.08 hr soaking in 22% solution in water.
Source text: as §1, §3

Series [7] is described as follows: Curdling / cream / solidification of milk.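 Also: compared with untreated control milk in closed containers.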 The note with it: pasteurized whole and fat-free milk.
Source text: as §1

Take `CCCCOCCO` [2-butoxyethanol, 2-Butoxyethanol]: the Fungus growth in the series on fungus (312 h) is listed as above 29 days. Moreover, the “Spoilage Time - Sample (Fungus)” value in the series with fungus (Red tomato, 2 hrs P-E, control 13 days) came out at 29 days. In [1], the “Effectiveness for controlling one or more spoilage criteria” value is recorded as “effective to a greater or lesser extent”. Further, the “Spoilage Time - Sample (Expedited ripening)” value in series [2] (Mango, Sachet) stood at 8 days.
As for `CCOCCO` [2-ethoxyethanol, 2-Ethoxyethanol], the “Spoilage Time - Sample (Ripening)” value in series [2] (Mango, 2 hrs P-E, control 16 days) was 23 days.
With `O=C1C=CCCC1` [2CY, 2-Cyclohexen-1-one], the “Spoilage Time - Sample” value in series [3] (Example 114, Yellowing, Coriander, 1 hr P-E, control 10 days) is given as 10+ days; in series [3] (Example 114, Yellowing, Coriander, 1 hr P-E, control 10 days, listed as 2-cyclohexen-1-one), “significantly delayed”; in series [4], 3 days; in series [4] (listed as 2-cyclohexen-1-one), “delayed or prevented”; in [2] (Example 112, Ripeness, Papaya, 2 hrs P-E, control 7 days), 11 days; in series [2] (Example 112, Ripeness, Papaya, 2 hrs P-E, control 7 days, listed as 2-cyclohexen-1-one) it was “at least 11 days”. Moreover, in the series on avocado (Example 113, Softening, Avocado, 2 hrs P-E, control 2 days), the “Spoilage Time - Sample” value stood at 2 days. For the same molecule, the Effectiveness on ginger entry in the series on fungus (ginger, pre-exposure and sachet method) is “found effective”. The “Shelf-life of flowery vegetables” value in [1] is “extended shelf-life”. The “Shelf-life of shelled and unshelled peanuts” value in series [1] (peanuts) is listed as “extended”. For the same molecule, in [1], the “Effectiveness for controlling one or more spoilage criteria” value is on record as “effective to a greater or lesser extent”. Besides, the “Effectiveness in delaying the ripening of tomatoes” value in series [2] (unsaturated versus saturated homolog) is “more effective”. Moreover, the “Spoiling of the flesh with development of fungus” value in the series on avocado (avocados, Examples 77, 78, 107, 108, 113 & 171) was “significantly delayed”.
For the molecule `NCCN` [ED, Ethylenediamine], the “Spoilage Time - Sample” value in series [3] (Example 131, Color change, Parsley, 0.25 hr P-E, control 7 days) is given as 22+ days; in [3] (Example 131, Color change, Parsley, 0.25 hr P-E, control 7 days, listed as ethylenediamine), “significantly delayed”; in [2] (Example 132, Ripening, Banana, 0.25 hr P-E, control 18 days) it was 21+ days; in [2] (Example 132, Ripening, Banana, 0.25 hr P-E, control 18 days, listed as ethylenediamine), above 21 days. In addition, the “Effectiveness for controlling one or more spoilage criteria” value in [1] is listed as “effective to a greater or lesser extent”.
Take `N.NC(=O)O` [ammonium carbamate, Ammonium carbamate]: the “Spoilage Time - Sample (Fungus)” value in the series with fungus was 80+ days. The “Loss of pinkish fleshy color” value in series [5] (Example 143, ground beef, sachet, 3rd day, control within 2 days) is “lost less fleshy pinkish color”. Further, the “Shelf-life of flowery vegetables” value in series [1] is recorded as “extended shelf-life”.
For `C[N+](C)(C)CCO.[Cl-]` [choline chloride, Choline chloride], the “Spoilage Time - Sample (Color loss)” value in [3] (Broccoli, 1 hr soaking in 5% solution in water, control 1 day) turned out to be 8 days. For the same molecule, in series [3] (Example 149, Bok choy, pre-dipped into 22% solution), the Remaining green entry is given as “remained green longer”. For the same molecule, in series [3] (Example 150, parsley, pre-dipping/rinsing in 22% solution), the Color change result was “delayed the color change”. Moreover, the “Color change from green-to-yellow” value in series [3] (Example 152, broccoli, dipped into 5% solution) is “significantly delayed”. For the same molecule, in series [4] (Example 154, potatoes, pre-dipping into 10% solution), the Sprouting entry was “either prevented or significantly delayed”. In addition, in [4] (Fingerling Potatoes, 2 hrs soaking in 10% solution in water, control 10 days), the “Spoilage Time - Sample (Sprouting)” value stood at 16 days. Also, the “Ripening, green-to-yellow (or red) color-change” value in series [2] (Example 151, green chili peppers) is given as “delayed”; in series [2] (Example 153, Jalapeno peppers) it was “delayed”. In addition, the “Spoilage Time - Sample (Ripening)” value in series [2] (Jalapeño Peppers, 1 hr soaking in 10% solution in water, control 3 days) worked out at 8 days; in series [2] (Peppers, 2 hrs soaking in 10% solution in water, control 6 days), 13 days. Further, the “Spoilage Time - Sample (Dehydration)” value in series [6] (Bok Choy, control 7 days) is listed as 11 days; in [6] (Parsley, control 7 days), 11 days.
As to `COC(=O)OC` [dimethyl carbonate, Dimethyl carbonate], in [1], the “Effectiveness for controlling one or more spoilage criteria” value is recorded as “effective to a greater or lesser extent”. This molecule also gave an Expedited ripening in series [2] (Example 155, mango, control around 14 days) of 8 days. Also, the “Spoilage Time - Sample (Expedited ripening)” value in [2] (Mango, Sachet) is given as 8 days.
In [2] (Example 156, mangoes, sachet, control 16 days), `COC(=O)/C=C\C(=O)OC` [dimethyl maleate, Dimethyl maleate] displayed a Ripening of 23 days. In series [2] (Mango, Sachet, control 16 days), the “Spoilage Time - Sample (Ripening)” value came out at 23 days.
On to `O=C(O)C(O)c1ccccc1` (stereo not shown) [mandelic acid, Mandelic Acid], for which the Spoilage of coriander result in [3] (Example 161, soaking in 1% solution) was “significantly delayed”. Moreover, in series [6] (Coriander, 0.5 hr soaking in 1% solution in water, control 7 days), the “Spoilage Time - Sample (Wet)” value is 7+ days.
Consider `OB(O)c1ccccc1` [phenylboronic acid, Phenylboronic acid], for which the “Spoilage Time - Sample (Color change)” value in series [3] (Broccoli, control 4 days) was 28 days; in series [3] (Lime, control 6 days) it was 6+ days; in [3] (Methi, control 4 days) it was 28 days. Moreover, in series [3] (Example 137, limes, sprayed with 2% solution in water, room temperature, control 6 days), the “Color change from green to brown on the skin” value is listed as above 10 days. The “Spoilage Time - Sample (Fungus)” value is given as 10+ days with fungus (Blueberry, 2% in water sprayed, control 6 days) and 10+ days with fungus (Strawberry, 2% in water sprayed, control 6 days). For the same molecule, the Fungus growth result in the series with fungus (strawberries, raspberries, blackberries and lychee) is reported as “either prevented or significantly delayed”. In addition, in series [7], the Curdling of milk result is “delayed curdling”. In series [4] (Example 140, grains, mainly unhusked rice and soft white wheat, 2% spray, control 2 days), the Germination/sprouting is listed as above 10 days. Also, the “Spoilage Time - Sample (Germination)” value in [4] (Grains (mixed legumes and soft white wheat), 2% in water sprayed, control 2 days) is 7+ days.
On to (−)-Menthone, for which, in series [1], the “Shelf-life of flowery vegetables” value is recorded as “extended shelf-life”. Further, the Dehydration/wilting result in series [6] (Example 162, radish, vapor, control 5 days) was “less dehydration/wilting”. Besides, the “Spoilage Time - Sample (Shriveling)” value in [6] (Radish, 2 hrs P-E, control 5 days) amounted to 5 days.
For Ammonium carbonate, the “Spoilage Time - Sample (Color loss)” value in series [5] (Ground Beef), in series [5] (Ground Chicken) and in [5] (Tilapia fish fillet) was 2+ days each time. In addition, the “Improvements with meat and fish” value in series [5] (meat and fish) is “demonstrated improvements”. Moreover, the “Shelf-life of flowery vegetables” value in [1] is “extended shelf-life”. In addition, the “Effectiveness as shelf-life extender” value in series [1] (tofu) was “effective”.
